# Experimental data reported in patent US5250541A, “Kynurenic acid derivatives, their preparation and pharmaceutical compositions containing them” (Fidia S.p.A., priority 1989, dated 1993).
# Like-named read-outs stand apart in the source and are kept apart here.
# Experiments:
# [1] = test system: NMDA receptors present on guinea-pig ileum; conditions: guinea-pig myenteric plexus; cited from earlier work
# [2] = biological target: T1, glycine recognition site of the NMDA receptor-ion channel complex (cortical membranes), UniProt Q05586); test: displacement of labelled glycine from cortical membranes; assay type: binding; conditions: cortical membranes; read-out: concentration displacing 50% of labelled glycine from its binding sites
# T1 construct: from tissue
# Description: (§1) 1) they displace labelled glycine from cortical membranes with an EC50 value 5-10 times lower than that of kynurenate;
# [3] = test system: NMDA receptors present on guinea-pig ileum; test: antagonism of glutamate or NMDA actions on guinea-pig ileum; assay type: cell-based; conditions: guinea-pig terminal ileum; read-out: concentration antagonising 50% of glutamate or NMDA actions
# Description: 2) they antagonise in […] way the glutamate effect on NMDA receptors present on guinea-pig ileum: on this test their effect is competitively antagonized by glycine.
# [4] = test system: mouse cerebral cortex slices; test: antagonism of glutamate or NMDA actions on mouse cerebral cortex slices; assay type: cell-based; conditions: brain slices, read-out: concentration antagonising 50% of glutamate or NMDA actions
# Description: (§2) The compounds I were also active in mouse cerebral cortex slices according to Proc. Natl. Acad. Sci. USA 85; 6547-6550--1988, in the prevention of glutamate toxicity in cultured cells and in the prevention of NMDA induced convulsions in mice.
# [5] = test system: cultured cells; test: prevention of glutamate toxicity in cultured cells; assay type: cell-based
# Description: as §2
# [6] = biological target: T2, glycine recognition site of the NMDA receptor-ion channel complex (cortical membranes) (Homo sapiens, UniProt Q05586); test: displacement of labelled glycine from cortical membranes; assay type: binding
# T2 construct: from tissue
# Description: as §1
smiles,measurement,setting,value
O=C(O)c1cc(=O)c2ccccc2[nH]1 [kynurenic acid],antagonistic activity of the glutamate effect,[1],antagonistic activity of the glutamate effect
"O=C(O)c1cc(S)c2ccc(Cl)cc2n1 [7-chloro-4-thiokynurenic acid, 7-chloro-4-thio-quinoline-2-carboxylic acid]",IC50,[2],1 µM
same,IC50,[3],5 µM
same,IC50,[4],5 µM
same,concentration antagonising the glutamate neurotoxicity,[5],0.08 µM
"O=C(O)c1cc(S)c2ccccc2n1 [thiokynurenic acid, 4-thio-quinoline-2-carboxylic (thiokynurenic) acid]",mode of action at the glycine receptors,[6],competitive antagonists of the glycine receptors
same,mode of action at the glycine receptors,[6]; listed as 4thiokynurenic acid,competitive antagonists of a particular kind of glycine receptors
